According to patent US4211773A, “5-Substituted 1-(2'-Deoxy-2'-substituted-β-D-arabinofuranosyl)pyrimidine nucleosides” (Sloan Kettering Institute for Cancer Research, priority 1978, dated 1980):
Converted amounts (≈) assume the structure as drawn. Read-outs that look alike come from different tables or passages of the source.

Legend:
P815 = assay: Cytotoxicity, inhibition of growth of P815 cells in vitro; type: cell-based; details: Mus musculus, 96 hrs. incubation at 37° C., read-out: Cytoxicity ID50
Protocol: (§1) *****Concentration required for 50% inhibition of growth of cells in
(§2) vitro after 96 hrs. incubation at 37° C.

[1] = system: Herpes Simplex Virus--Type 1 (HSV-1) strain 2931; assay: Capacity to suppress HSV-1 replication in monolayers of Vero cells; type: cell-based; details: 24 hr, read-out: Anti-viral Activity (% reduction of HSV1 titer); for activity at 0.01 µg/mL: Human alphaherpesvirus 1, 0.01 μg/ml; for activity at 0.1 µg/mL: Human alphaherpesvirus 1, 0.1 μg/ml; for activity at 1 µg/mL: Human alphaherpesvirus 1, 1.0 μg/ml; for activity at 10 µg/mL: Human alphaherpesvirus 1, 10 μg/ml; for activity at 100 µg/mL: Human alphaherpesvirus 1, 100 μg/ml
Protocol: The capacity of 2'-fluoro-arabinosyl nucleosides (Formulas IV and V shown below) to suppress replication of Herpes Simplex virus-type 1 (HSV-1) in monolayers of Vero cells is shown in Table I.
Vero cell monolayers were infected with approximately 1 plaque forming unit (PFU) per cell of Herpes Simplex Virus--Type 1 (HSV-1) strain 2931 and incubated for 2 hr. Maintenance media containing the various concentrations of drugs were used to overlay the monolayers. Supernatant fluids were collected 24 hr. later and titered on Vero cell monolayers described in Lopez et al, Ann. N.Y. Acad. Sci., 284, 351 (1977). Percent inhibition over controls was calculated.

L51784 = assay: Cytotoxicity, inhibition of growth of L51784 cells in vitro; type: cell-based; details: 96 h, read-out: Cytoxicity ID50
Protocol: as §1, §2

herpes infections = details: therapeutic trials in herpes infections; cited from earlier work
several DNA virus = details: cell culture; cited from earlier work
anti-viral = details: cited from earlier work
[2] = system: Herpes Simplex Virus - type 2; assay: Inhibition of Herpes Simplex Virus type 2 replication (effective doses); type: cell-based; details: for EC50: read-out: ED50 (the source's name)
Protocol: (§3) Compounds of the invention show anti-viral and anti-tumor activity. 1-(2-Deoxy-2-fluoro-β-D-arabinofuranosyl)-5-iodocytosine inhibits Herpes Simplex Virus type 1 and type 2 replication. HFEM, Patton, 2931, and F-strain HSV-1 and 333 and G-strain HSV-2 are affected at concentrations of 1-(2-deoxy-2-fluoro-β-D-arabinofuranosyl)-5-iodocytosine 0.01 μM (approximately 0.004 μg/ml).
(§4) The effective doses for 1-(2-deoxy-2-fluoro-β-D-arabinofuranosyl)-5-iodocytosine are given below. 1-(2-deoxy-2-fluoro-β-D-arabinofuranosyl)-5-iodocytosine is diluted in physiological saline, filter sterilized, and inoculated. This compound is readily soluble at concentrations of 25 mg/ml in saline. In mouse studies, the drug is inoculated by the intraperitoneal route.

[3] = system: Cytomegalovirus (CMV strain AD 169); assay: Effective dose against Cytomegalovirus strain AD-169; CMV plaque formation on WI-38 cells; type: cell-based; details: for minimal effective concentration: Human betaherpesvirus 5, CMV strain AD 169, WI-38 cells
Protocol: as §4

HSV-1 strain 2931 = assay: In vivo activity in A/J mice infected with HSV-1 strain 2931; details: for mice surviving the 21 day experiment: starting 24 hours after inoculation
Protocol: as §4
1-(2-deoxy-2-fluoro-β-D-arabinofuranosyl)-5-iodocytosine was also shown to be active in vivo. A/J mice were inoculated with approximately 50 LD50 of HSV-1 strain 2931 intraperitoneally and then treated with 1-(2-deoxy-2-fluoro-β-D-arabinofuranosyl)-5-iodocytosine starting 24 hours later. 1-(2-deoxy-2-fluoro-β-D-arabinofuranosyl)-5-iodocytosinewas given at 10 and 1 mg/kg/da for 5 days. Untreated mice died 8 days after inoculation. Five of 10 mice treated with 10 mg/kg/day survived the 21 day experiment. Two of 10 treated with 1 mg/kg/da survival the 21 day experiment and the remainder died an average of 10 days after inoculation.

[4] = Toxicity to normal lymphoblastoid cells; type: cell-based; details: read-out: not toxic at concentrations of up to
Protocol: Since 1-(2-deoxy-2-fluoro-β-D-arabinofuranosyl)-5-iodocytosine was not toxic to normal lymphoblastoid cells at concentrations of up to 10 μM, the compound is believed to affect tumor cells at concentrations 1/100th those needed to suppress normal cell replication. Compounds of the invention can be used as a selective treatment for tumors expressing the fetal thymidine kinase which includes most tumors.

[5] = system: thymidine kinase negative strain of HSV-1 (HSV-1 TK^-); assay: Activity against thymidine kinase negative HSV-1; type: cell-based; details: Human alphaherpesvirus 1, read-out: not affected at concentrations of up to
[6] = system: K 562 cells, a cell line of chronic myologenous leukemia cells; assay: Suppression of replication of K 562 cells in vitro; type: cell-based; details: Homo sapiens, K562, read-out: concentration found to suppress replication of K 562 cells
Protocol: Since 1-(2-deoxy-2-fluoro-β-D-arabinofuranosyl)-5-iodocytosine was active against a virus which uses fetal thymidine kinase and since many tumor cells express high concentrations of fetal thymidine kinase, it was tested as a selective anti-tumor agent.

[7] = system: Herpes Simplex Virus - type 1; assay: Inhibition of Herpes Simplex Virus type 1 replication (effective doses); type: cell-based; details: for EC50: read-out: ED50 (the source's name)
Protocol: as §3, §4

Solubility in saline = type: physicochemical; details: read-out: readily soluble at concentrations of
Protocol: as §4

equine herpesvirus = details: cited from earlier work
HSV type 1 = details: cited from earlier work
HSV type 2 = details: cited from earlier work
[8] = system: herpes simplex virus (HSV); details: compared with corresponding deoxyuridine analogs; cited from earlier work
[9] = system: herpesvirus infected cells; details: cells in which deoxycytidine deaminase is present; cited from earlier work

SMILES | IC50 (P815) | activity at 0.01 µg/mL [1] | activity at 0.1 µg/mL [1] | activity at 1 µg/mL [1] | activity at 10 µg/mL [1] | IC50 (L51784) | other results
Nc1nc(=O)n([C@@H]2O[C@H](CO)[C@@H](O)[C@@H]2F)cc1Br [IVd, 1-(2-deoxy-2-fluoro-β-D-arabinofuranosyl)-5-bromocytosine] | > 10 µg/mL | < 90% | 90 to 99% | 99 to 99.9% | 100% | ~10 µg/mL (≈ 30.9 µM) | 
O=c1ccn([C@@H]2O[C@H](CO)[C@@H](O)[C@@H]2F)c(=O)[nH]1 [Va] | > 10 µg/mL | < 90% | < 90% | 99 to 99.9% | 99 to 99.9% | > 10 µg/mL | 
Nc1ccn([C@@H]2O[C@H](CO)[C@@H](O)[C@@H]2O)c(=O)n1 [ara-C, 1-β-D-Arabinofuranosylcytosine] |  |  |  |  |  |  | therapeutic to toxic ratio (herpes infections): unity; inhibition of multiplication of several DNA virus (several DNA virus): inhibits the multiplication of several DNA virus in cell culture
Nc1nc(=O)n([C@@H]2O[C@H](CO)[C@@H](O)[C@@H]2F)cc1F [IVb, 1-(2-deoxy-2-fluoro-β-D-arabinofuranosyl)-5-fluorocytosine] | 0.4 µg/mL (≈ 1.52 µM) | < 90% | 90 to 99% | 99 to 99.9% | 99.9 to 100% | 0.5 µg/mL (≈ 1.9 µM) | 
Nc1nc(=O)n([C@@H]2O[C@H](CO)[C@@H](O)[C@@H]2F)cc1Cl [IVc, 1-(2-deoxy-2-fluoro-β-D-arabinofuranosyl)-5-chlorocytosine] | ~1 µg/mL (≈ 3.58 µM) | < 90% | < 90% | < 90% | 99.9 to 100% | 1.4 µg/mL (≈ 5.01 µM) | 
O=c1ccn([C@@H]2O[C@H](CO)[C@@H](O)[C@@H]2O)c(=O)[nH]1 [ara-U, 1-β-D-arabinofuranosyluracil] |  |  |  |  |  |  | anti-viral activity (anti-viral): devoid of anti-viral or anti-cancer activity
O=c1[nH]c(=O)n([C@@H]2O[C@H](CO)[C@@H](O)[C@@H]2F)cc1Cl [Vc, 1-(2-deoxy-2-fluoro-β-D-arabinofuranosyl)-5-chlorouracil] | 3.4 µg/mL (≈ 12.1 µM) | < 90% | < 90% | < 90% | 100% | 1.4 µg/mL (≈ 4.99 µM) | 
Nc1nc(=O)n([C@@H]2O[C@H](CO)[C@@H](O)[C@@H]2F)cc1I [IVe, 1-(2-deoxy-2-fluoro-β-D-arabinofuranosyl)-5-iodocytosine] | 14 µg/mL (≈ 37.7 µM) | 90 to 99% | 99 to 99.9% | 100% | 100% | 48 µg/mL (≈ 129 µM) | EC50 ([2]; Human alphaherpesvirus 2, HSV-2 strain 333): 50 nM; EC50 ([2]; Human alphaherpesvirus 2, HSV-2 strain G): 10 nM; minimal effective concentration ([2]; Human alphaherpesvirus 2, 333 and G-strain HSV-2, read-out: concentration at which HSV-2 strains are affected): 0.01 µM; EC50 ([3]; Human betaherpesvirus 5, AD169, WI-38, CMV strain AD-169, read-out: ED50 (the source's name)): 1000 nM; minimal effective concentration ([3]; read-out: concentration found to reduce CMV plaque formation): 1 µM; minimal effective concentration ([3]; read-out: concentration found to reduce CMV plaque formation (mass units)): 0.4 µg/mL; average time of death after inoculation (non-surviving mice) (HSV-1 strain 2931; 1 mg/kg/da for 5 days, intraperitoneal, remainder of mice): 10 days; mice surviving the 21 day experiment (HSV-1 strain 2931; 1 mg/kg/da for 5 days, intraperitoneal): Two of 10; mice surviving the 21 day experiment (HSV-1 strain 2931; 10 mg/kg/day for 5 days, intraperitoneal): Five of 10; in vivo activity against HSV-1 (HSV-1 strain 2931; 10 and 1 mg/kg/da for 5 days): active in vivo against HSV-1; MNTC [4]: > 10 µM; minimal effective concentration [5]: > 10 µM; minimal effective concentration [6]: 0.04 µg/mL; activity at 100 µg/mL [1]: 100%; EC50 ([7]; Human alphaherpesvirus 1, HSV-1 strain 2931): 7 nM; EC50 ([7]; Human alphaherpesvirus 1, HSV-1 strain HFEM): < 10 nM; EC50 ([7]; Human alphaherpesvirus 1, HSV-1 strain McIntyre): < 10 nM; EC50 ([7]; Human alphaherpesvirus 1, HSV-1 strain Patton): 10 nM; minimal effective concentration ([7]; Human alphaherpesvirus 1, HFEM, Patton, 2931 and F-strain HSV-1, read-out: concentration at which HSV-1 strains are affected): 0.01 µM; solubility (Solubility in saline): ≥ 25 mg/mL
Cc1cn([C@@H]2O[C@H](CO)[C@@H](O)[C@@H]2O)c(=O)[nH]c1=O [Ara-T] |  |  |  |  |  |  | activity against equine herpesvirus (equine herpesvirus): active; activity against HSV type 1 (HSV type 1): active; activity against HSV type 2 (HSV type 2): active
Nc1nc(=O)n([C@H]2C[C@H](O)[C@@H](CO)O2)cc1I [5-iodo-2'-deoxycytidine] |  |  |  |  |  |  | inhibition of HSV replication [8]: as effectively as their corresponding deoxyuridine analogs
O=c1[nH]c(=O)n([C@@H]2O[C@H](CO)[C@@H](O)[C@@H]2F)cc1F [Vb, 1-(2-deoxy-2-fluoro-β-D-arabinofuranosyl)-5-fluorouracil] | 0.7 µg/mL (≈ 2.65 µM) | < 90% | 99 to 99.9% | 100% | 100% | 1 µg/mL (≈ 3.79 µM) | 
O=c1[nH]c(=O)n([C@@H]2O[C@H](CO)[C@@H](O)[C@@H]2F)cc1I [Ve, 1-(2-deoxy-2-fluoro-β-D-arabinofuranosyl)-5-iodouracil] | 0.8 µg/mL (≈ 2.15 µM) | < 90% | 90 to 99% | 99.9 to 100% | 100% | 0.9 µg/mL (≈ 2.42 µM) | 
O=c1[nH]c(=O)n([C@@H]2O[C@H](CO)[C@@H](O)[C@@H]2F)cc1Br [Vd, 1-(2-deoxy-2-fluoro-β-D-arabinofuranosyl)-5-bromouracil] | 1.6 µg/mL (≈ 4.92 µM) | < 90% | < 90% | 99 to 99.9% | 100% | 0.9 µg/mL (≈ 2.77 µM) | 
Cc1cn([C@@H]2O[C@H](CO)[C@@H](O)[C@@H]2O)c(=O)nc1N [5-Methyl-ara-C] |  |  |  |  |  |  | activity against herpesvirus infected cells [9]: active
Nc1ccn([C@@H]2O[C@H](CO)[C@@H](O)[C@@H]2F)c(=O)n1 [IVa, 1-(2-deoxy-2-fluoro-β-D-arabinofuranosyl)cytosine, reference compound] | 0.05 µg/mL (≈ 0.204 µM) | < 90% | 90 to 99% | 90 to 99% | 99.9 to 100% | 0.05 µg/mL (≈ 0.204 µM) | activity at 100 µg/mL [1]: 100%
Nc1nc(=O)n([C@H]2C[C@H](O)[C@@H](CO)O2)cc1Br [5-Bromo-2'-deoxycytidine] |  |  |  |  |  |  | inhibition of HSV replication [8]: as effectively as their corresponding deoxyuridine analogs
